The values that follow come from PMC7531004, “Discovery of gramicidin A analogues with altered activities by multidimensional screening of a one-bead-one-compound library” (Nature Communications, 2020).

The subject of series [1] is P388 mouse leukemia cells. To be noted: 92 h. A digest of the protocol: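 P388 cells at 1 × 10^4 cells/mL (final) were exposed to library peptides (stocks diluted 250-fold in RPMI1640/10% FBS) for 92 h at 37 °C, 5% CO2. Viable cells were counted by WST-1/1-methoxy PMS (4 h), absorbance 415 nm, and expressed as cell viability (%).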
Series [2] can be described thus: H+/Na+ transport assay of bead-derived peptides (one-point).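 Also: relative to parent gramicidin A activity set to 1.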 The format is biochemical. Further details: key: relative activity; mean of two control wells = 1.00. To be noted: bead-derived peptide solution, EYPC/EYPG LUVs. A digest of the protocol: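 Values are normalized fluorescence, with Triton X-100 defining 100% and untreated LUVs 0%, and the two control wells averaging 1.00. Vesicles carried 1.0 mM pyranine and included egg yolk phosphatidylglycerol. Peptides were incubated with them 30 min at room temperature.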

In series [3] the test system is Streptococcus pyogenes SSI-9. The experiment in a line: Antibacterial activity assay of bead-derived peptides (three concentrations). It is filed as cell-based. Further details: key: +++: inhibition by the 640-fold diluted peptide solution; ++: inhibition by the 160-fold diluted solution; +: inhibition by the 40-fold diluted solution; -: no inhibition. As to conditions: S. pyogenes, bead-derived peptide solution, three concentrations. A digest of the protocol:
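Undiluted, 4-fold and 16-fold DMSO-diluted peptide stocks; S. pyogenes SSI-9, 2 × 10^5 CFU, cation-adjusted MHB (50 mg/L Ca2+, 25 mg/L Mg2+) + 5% laked horse blood; 37 °C, 18 h; readout = cell pellet visible or not.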

Molecules are shown by their SMILES. Where a SMILES comes first, the peptide text is derived from it. [ ]: non-standard residue; d: D form. The star is where a group is joined. NHCH2CH2OH = OCCN*; For = O=C*

In series [1], `CC(C)C[C@@H](NC(=O)[C@H](Cc1c[nH]c2ccccc12)NC(=O)[C@H](NC(=O)[C@H](Cc1c[nH]c2ccccc12)NC(=O)[C@H](NC(=O)[C@H](Cc1c[nH]c2ccccc12)NC(=O)[C@H](NC(=O)[C@@H](NC(=O)[C@H](NC(=O)[C@H](C)NC(=O)[C@H](NC(=O)[C@H](C)NC(=O)CNC(=O)[C@@H](NC=O)C(C)C)C(C)C)C(C)C)C(C)C)C(C)C)C(C)C)C(C)C)C(=O)N[C@@H](Cc1c[nH]c2ccccc12)C(=O)NCCO` [compound 10699] (For-VGA[dV]A[dV]V[dV]W[dV]W[dV]W[dL]W-NHCH2CH2OH) came in with a cell viability/% of 100.0%. For the same compound, the “H+/Na+ transport activity normalized against the value of 1 (1.00)” value (shortened to “H+/Na+ transport activity normalized”) in series [2] was 1.09. Besides, in series [3], the antibacterial activity result is on record as “-”.
The matching figures for `CC(C)C[C@@H](NC(=O)[C@H](C)NC(=O)CNC(=O)[C@@H](NC=O)C(C)C)C(=O)N[C@@H](C)C(=O)N[C@H](CC(C)C)C(=O)N[C@H](C(=O)N[C@@H](C(=O)N[C@@H](Cc1c[nH]c2ccccc12)C(=O)N[C@@H](C(=O)N[C@@H](Cc1c[nH]c2ccccc12)C(=O)N[C@H](CC(C)C)C(=O)N[C@@H](Cc1c[nH]c2ccccc12)C(=O)N[C@H](CC(C)C)C(=O)N[C@@H](Cc1c[nH]c2ccccc12)C(=O)NCCO)C(C)C)[C@H](C)O)C(C)C` [compound 10710] (For-VGA[dL]A[dL]V[dT]W[dV]W[dL]W[dL]W-NHCH2CH2OH): 100.0%, 1.05 and “-”.
The corresponding values for `CC(C)C[C@@H](NC(=O)[C@H](C)NC(=O)[C@H](NC(=O)[C@H](C)NC(=O)CNC(=O)[C@@H](NC=O)C(C)C)C(C)C)C(=O)N[C@H](C(=O)N[C@@H](C(=O)N[C@@H](Cc1c[nH]c2ccccc12)C(=O)N[C@@H](C(=O)N[C@@H](Cc1c[nH]c2ccccc12)C(=O)N[C@@H](C(=O)N[C@@H](Cc1c[nH]c2ccccc12)C(=O)N[C@H](CC(C)C)C(=O)N[C@@H](Cc1c[nH]c2ccccc12)C(=O)NCCO)C(C)C)C(C)C)[C@H](C)O)C(C)C` [compound 11143] (For-VGA[dV]A[dL]V[dT]W[dV]W[dV]W[dL]W-NHCH2CH2OH) are 63.4%, 1.19 and “-”.
Compound `CC(C)C[C@@H](NC(=O)[C@H](Cc1c[nH]c2ccccc12)NC(=O)[C@@H](CC(C)C)NC(=O)[C@H](Cc1c[nH]c2ccccc12)NC(=O)[C@H](NC(=O)[C@H](Cc1c[nH]c2ccccc12)NC(=O)[C@@H](CC(C)C)NC(=O)[C@@H](NC(=O)[C@H](NC(=O)[C@H](C)NC(=O)[C@H](NC(=O)[C@H](C)NC(=O)CNC(=O)[C@@H](NC=O)C(C)C)C(C)C)C(C)C)C(C)C)C(C)C)C(=O)N[C@@H](Cc1c[nH]c2ccccc12)C(=O)NCCO` [compound 11146] (For-VGA[dV]A[dV]V[dL]W[dV]W[dL]W[dL]W-NHCH2CH2OH) registered a cell viability/% in series [1] of 100.0%. Besides, the “H+/Na+ transport activity normalized” value in series [2] is given as 1.08. In addition, the antibacterial activity entry in series [3] is “+”.
The matching figures for `CC(C)C[C@@H](NC(=O)[C@H](C)NC(=O)CNC(=O)[C@@H](NC=O)C(C)C)C(=O)N[C@@H](C)C(=O)N[C@H](CC(C)C)C(=O)N[C@H](C(=O)N[C@H](CC(C)C)C(=O)N[C@@H](Cc1c[nH]c2ccccc12)C(=O)N[C@@H](C(=O)N[C@@H](Cc1c[nH]c2ccccc12)C(=O)N[C@H](CC(C)C)C(=O)N[C@@H](Cc1c[nH]c2ccccc12)C(=O)N[C@H](CC(C)C)C(=O)N[C@@H](Cc1c[nH]c2ccccc12)C(=O)NCCO)C(C)C)C(C)C` [compound 11198] (For-VGA[dL]A[dL]V[dL]W[dV]W[dL]W[dL]W-NHCH2CH2OH): 3.2%, 1.08 and “-”.
The matching figures for `CC(C)C[C@@H](NC(=O)[C@H](Cc1c[nH]c2ccccc12)NC(=O)[C@H](NC(=O)[C@H](Cc1c[nH]c2ccccc12)NC(=O)[C@@H](CC(C)C)NC(=O)[C@H](Cc1c[nH]c2ccccc12)NC(=O)[C@H](NC(=O)[C@@H](NC(=O)[C@H](NC(=O)[C@H](C)NC(=O)[C@H](NC(=O)[C@H](C)NC(=O)CNC(=O)[C@@H](NC=O)C(C)C)[C@H](C)O)C(C)C)C(C)C)C(C)C)C(C)C)C(=O)N[C@@H](Cc1c[nH]c2ccccc12)C(=O)NCCO` [compound 11199] (For-VGA[dT]A[dV]V[dV]W[dL]W[dV]W[dL]W-NHCH2CH2OH): 65.2%, 1.00 and “-”.
The matching figures for `CC(C)C[C@@H](NC(=O)[C@H](C)NC(=O)CNC(=O)[C@@H](NC=O)C(C)C)C(=O)N[C@@H](C)C(=O)N[C@H](CC(C)C)C(=O)N[C@H](C(=O)N[C@H](CC(C)C)C(=O)N[C@@H](Cc1c[nH]c2ccccc12)C(=O)N[C@H](CC(C)C)C(=O)N[C@@H](Cc1c[nH]c2ccccc12)C(=O)N[C@@H](C(=O)N[C@@H](Cc1c[nH]c2ccccc12)C(=O)N[C@@H](C(=O)N[C@@H](Cc1c[nH]c2ccccc12)C(=O)NCCO)C(C)C)C(C)C)C(C)C` [compound 11214] (For-VGA[dL]A[dL]V[dL]W[dL]W[dV]W[dV]W-NHCH2CH2OH): 2.6%, 1.02 and “-”.
The compound `CNC(=O)C[C@@H](NC(=O)[C@@H](NC(=O)[C@@H](CC(C)C)NC(=O)[C@H](C)NC(=O)[C@H](NC(=O)[C@H](C)NC(=O)CNC(=O)[C@@H](NC=O)C(C)C)C(C)C)C(C)C)C(=O)N[C@@H](Cc1c[nH]c2ccccc12)C(=O)N[C@@H](C(=O)N[C@@H](Cc1c[nH]c2ccccc12)C(=O)N[C@@H](C(=O)N[C@@H](Cc1c[nH]c2ccccc12)C(=O)N[C@H](CC(C)C)C(=O)N[C@@H](Cc1c[nH]c2ccccc12)C(=O)NCCO)C(C)C)C(C)C` [compound 11226] (For-VGA[dV]A[dL]V[dD](NHMe)W[dV]W[dV]W[dL]W-NHCH2CH2OH) came in with a cell viability/% in series [1] of 76.8%. Further, in series [2], the “H+/Na+ transport activity normalized” value is 1.04. For the same compound, the antibacterial activity result in series [3] is listed as “-”.
`CNC(=O)C[C@@H](NC(=O)[C@@H](NC(=O)[C@@H](CC(C)C)NC(=O)[C@H](C)NC(=O)[C@@H](CC(C)C)NC(=O)[C@H](C)NC(=O)CNC(=O)[C@@H](NC=O)C(C)C)C(C)C)C(=O)N[C@@H](Cc1c[nH]c2ccccc12)C(=O)N[C@@H](C(=O)N[C@@H](Cc1c[nH]c2ccccc12)C(=O)N[C@@H](C(=O)N[C@@H](Cc1c[nH]c2ccccc12)C(=O)N[C@H](CC(C)C)C(=O)N[C@@H](Cc1c[nH]c2ccccc12)C(=O)NCCO)C(C)C)C(C)C` [compound 11228] (For-VGA[dL]A[dL]V[dD](NHMe)W[dV]W[dV]W[dL]W-NHCH2CH2OH) had a cell viability/% in series [1] of 76.4%. Besides, in series [2], the “H+/Na+ transport activity normalized” value is 1.27. The antibacterial activity result in series [3] is given as “-”.
Turning to `CC(C)C[C@@H](NC(=O)[C@H](Cc1c[nH]c2ccccc12)NC(=O)[C@H](NC(=O)[C@H](Cc1c[nH]c2ccccc12)NC(=O)[C@@H](CC(C)C)NC(=O)[C@@H](NC(=O)[C@H](NC(=O)[C@H](C)NC(=O)[C@H](NC(=O)[C@H](C)NC(=O)CNC(=O)[C@@H](NC=O)C(C)C)[C@H](C)O)C(C)C)C(C)C)C(C)C)C(=O)N[C@@H](Cc1c[nH]c2ccccc12)C(=O)N[C@@H](C(=O)N[C@@H](Cc1c[nH]c2ccccc12)C(=O)NCCO)C(C)C` [compound 11238] (For-VGA[dT]A[dV]V[dL]W[dV]W[dL]W[dV]W-NHCH2CH2OH), the cell viability/% in series [1] is reported as 64.7%. Besides, in series [2], the “H+/Na+ transport activity normalized” value is on record as 1.03. Also, the antibacterial activity result in series [3] is listed as “-”.
